Values joined by “and” are separate entries in the source; they are usually repeats but may differ in a detail not shown here. Equal values may be shown once.
Tests used:
Aβ42 [1] = target: T1, Aβ42 (Homo sapiens, UniProt P05067); assay: Aβ42 fibril formation monitored by ThT fluorescence, NEF model fitting; type: biochemical; settings: for Nucleation rate constant, NEF model: NEF fit of fibril formation progress curves; for Nucleation rate constant, NEF model / Elongation rate constant, forward / Elongation rate constant, reverse / Fragmentation rate constant: Aβ42 1.0 μM, ligand at saturation; for Elongation rate constant, forward / Elongation rate constant, reverse / Fragmentation rate constant: NEF fit; for increase of nucleation rate constant relative to the unliganded peptide: from NEF nucleation rate constants
T1 construct: Small red spheres mark the Aβ42 peptide C-terminal residue, A42; purchased Sigma-Aldrich Corp
T1 sequence (P05067 672-713 limits assumed): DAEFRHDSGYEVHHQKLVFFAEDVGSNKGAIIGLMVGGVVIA
Source text: Reactions were initiated by the addition of ligand (at saturation) or buffer (control) to a fresh solution of Aβ42 and ThT (see Fig. 3 Legend). Such progress curves are often fit using a generalized sigmoidal function and compared on the basis of lag-time length and elongation-phase slope. Here, progress curves are fit numerically to the Nucleation-Elongation-Fragmentation (NEF) model ([51], [52]), using Copasi ([53]). Numerical modeling allows one to assess whether a particular mechanism adequately predicts experimental behavior and provides rate constants for the steps of the mechanism that can be compared across peptide•ligand combinations to identify where and to what extent ligands induce change.
Figure 3 Formation of CH•, CS•, and unliganded Aβ42fibrils.A, fibril formation. Fibril formation was monitored via the fluorescence increase (λex = 450 nm, λem = 482 nm) associated with the binding of ThT, which binds Aβ oligomers ≥5-mers. […] C. Progress curves were performed in triplicate, averaged, and fit numerically using the NEF polymerization model (see Results and discussion).
The NEF model assumes a slow, energetically unfavorable event generates a polymerization nucleus that rapidly adds monomers (at the elongation rate) to form oligomers. The reaction accelerates in a geometric fashion as oligomer fragmentation produces new nuclei. The tenets of the model are embodied in Equations (1), (2), (3), which form the basis of the Copasi model ([53]).(1) 2m⇆knucrevknucforn (2) m+n⇆kelrevkelforo+n (3) o→kfragn where m is monomer concentration, n is the concentration of surfaces capable of adding monomer, and o is the concentration of peptides that are in the interior of the polymer and thus cannot add monomers. knuc, kel, and kfrag are the nucleation, elongation, and fragmentation rate constants.
Fibril formation was monitored via the binding-induced change in ThT fluorescence (λex = 450 nm, λem = 482 nm) ([76]). […] C. Reagents (peptide, CH, CS, and ThT) were prepared immediately prior to use. CH and CS were solubilized in neat DMSO. Progress curves were determined in triplicate, and data were fit using the Nucleation-Fragmentation-Elongation (NEF) model (see Results and discussion).

Aβ42 [2] = target: T1, Aβ42; assay: Aβ42 nucleation rate versus [Aβ42]^2 (ThT, early lag phase, linear fit); type: biochemical; settings: linear least-squares fit of Rate-versus-[Aβ42]^2; free ligand 17 × Kd
Method: Reaction 1 of the NEF scheme assumes nucleation is second order in Aβ42 monomer concentration. The reaction order was determined for ligand-bound and free forms of Aβ42 by plotting nucleation rates versus [Aβ42]^n, where n, the reaction order, is 1, 2, or 3—such plots become linear only when n equals the reaction order ([54]). Nucleus formation was monitored via ThT fluorescence in the region of the progress curve where nucleation is rate limiting—the very early stage of the lag phase. Rates were obtained by linear least-squares fitting of progress curves. In all cases, fits were initiated at t0 and deviation from linearity was within experimental error (i.e., χ^2 > 0.95). […] The nucleation rate constants are given by the slopes of the plots (obtained by linear least-squares fitting) and are within the error of those predicted by NEF fitting, see Table 2.
Figure 4 Nucleation reaction order. Reactions were monitored via binding-induced changes in ThT fluorescence (λex = 450 nm, λem = 482 nm). All reactions were performed under the following conditions: ThT (30 μM), DMSO (0.5 % v/v), and K2PO4 (50 mM), pH 7.4, 25 °C ± 2 deg. C. […] A, unliganded Aβ42 nucleation. Titrant concentrations: Aβ42 (1.0, 2.0, 3.0, or 4.0 μM). B, CH•Aβ42 nucleation. […]
The formation of fibril nuclei was monitored via the Aβ-binding induced change in ThT fluorescence (λex = 450 nm, λem = 482 nm, ([42])). […]

Row | Structure (SMILES) | Nucleation rate constant, NEF model (Aβ42 [1]) | Elongation rate constant, forward (Aβ42 [1]) | Elongation rate constant, reverse (Aβ42 [1]) | Fragmentation rate constant (Aβ42 [1]) | increase of nucleation rate constant relative to the unliganded peptide (Aβ42 [1]) | Nucleation rate constant, linear model (Aβ42 [2]) | CS/CH nucleation rate constant ratio, experimental (Aβ42 [1]; CS•Aβ42 versus CH•Aβ42, calculated using Table 2 nucleation rate constants)
1 | CC(C)CCC[C@@H](C)[C@H]1CC[C@H]2[C@@H]3CC=C4C[C@@H](O)CC[C@]4(C)[C@H]3CC[C@]12C [CH, cholesterol] | 6.9 (0.2) × 10^−14 nM^−1 s^−1 | 830 (20) μM^−1 s^−1 | 98 (1) s^−1 | 5.6 (0.3) × 10^−11 s^−1 | ~49 fold | 7.3 (0.1) × 10^−14 nM^−1 s^−1 | 
2 | CC(C)CCC[C@@H](C)[C@H]1CC[C@H]2[C@@H]3CC=C4C[C@@H](OS(=O)(=O)O)CC[C@]4(C)[C@H]3CC[C@]12C [CS, cholesterol 3-sulfate] | 1.8 (0.3) × 10^−11 nM^−1 s^−1 | 860 (60) μM^−1 s^−1 | 85 (1) s^−1 | 4.3 (0.7) × 10^−11 s^−1 | ~13,000 fold | 1.5 (0.1) × 10^−11 nM^−1 s^−1 | 261 fold and 260 fold

Reference: PMC10704437, “Sterol-activated amyloid beta fibril formation” (The Journal of Biological Chemistry, 2023)
